Assays:
[1] = tested on: non-small-cell lung cancer (NSCLC) patients; assay: Neoadjuvant gemcitabine/cisplatin followed by surgery in stage IIB, IIIA and IIIB NSCLC patients, outcome by quartile of tumor BRCA1 mRNA expression; type: in vivo, human
Procedure: In all patients, neoadjuvant chemotherapy was indicated after evaluation by a thoracic surgeon, a radiologist, a medical oncologist, and a radiation oncologist. Patients received three cycles of neoadjuvant chemotherapy; 51 received cisplatin 100 mg/m^2 day 1 plus gemcitabine 1250 mg/m^2 days 1 and 8 every 21 days, and four received carboplatin AUC=5 day 1 plus gemcitabine 1000 mg/m^2 days 1 and 8 every 21 days. A thoracotomy was performed within four to five weeks after the last chemotherapy cycle; the surgical procedure was based on the extent of tumor at the time of the initial presentation.
We examined BRCA1 gene expression in formalin-fixed, paraffin-embedded surgical resected specimens from the 55 patients as previously described: Specht K, et al. (2001) Am. J. Pathol., 158, 419-429: “Quantitative gene expression analysis in microdissected archival formalin-fixed and paraffin-embedded tumor tissue”; Krafft A E, et al. (1997) Mol. Diagn., 3, 217-230: “Optimization of the isolation and amplification of RNA from formalin fixed, paraffin-embedded tissue: The Armed Forces Institute of Pathology experience and literature review”. After standard tissue sample deparaffinization using xylene and alcohols, samples were lysed in a tris-chloride, EDTA, sodium dodecyl sulphate (SDS) and proteinase K containing buffer. RNA was then extracted with phenol-chloroform-isoamyl alcohol followed by precipitation with isopropanol in the presence of glycogen and sodium acetate. RNA was resuspended in RNA storage solution (Ambion Inc; Austin Tex., USA) and treated with DNAse I to avoid DNA contamination. cDNA was synthesized using M-MLV retrotranscriptase enzyme. Template cDNA was added to Taqman Universal Master Mix (AB; Applied Biosystems, Foster City, Calif., USA) in a 12.5-μl reaction with specific primers and probe for each gene. The primer and probe sets were designed using Primer Express 2.0 Software (AB). Quantification of gene expression was performed using the ABI Prism 7900HT Sequence Detection System (AB). Primers and probe for BRCA1 mRNA expression analysis were designed according to the Ref Seq NM_007294 (www.ncbi.nlm.nih.gov/LocusLink). Forward primer is located in exon 8 (position 4292 bp to 4317 bp), reverse primer in exon 9 (position 4336 bp to 4360 bp), and probe in the exon 8/9 junction (position 4313 bp to 4333 bp). The PCR product size generated with these primers was 69 bp. The primers and 5′ labeled fluorescent reporter dye (6FAM) probe were as follows: β-actin: forward 5′ TGA GCG CGG CTA CAG CTT 3′, reverse 5′ TCCTTAATGTCACGCACGATTT 3′, probe 5′ ACC ACC ACG GCC GAG CGG 3′; BRCA1: forward 5′GGCTATCCTCTCAGAGTGACATTTTA 3′, reverse 5′ GCTTTATCAGGTTATGTTGCATGGT 3′, probe 5′ CCA CTC AGC AGA GGG 3′.
Relative gene expression quantification was calculated according to the comparative Ct method using β-actin as an endogenous control and commercial RNA controls (Stratagene, La Jolla, Calif.) as calibrators. Final results, were determined as follows: 2^−(ΔCt sample−ΔCt calibrator), where ΔCT values of the calibrator and sample are determined by subtracting the CT value of the target gene from the value of the β-actin gene. In all experiments, only triplicates with a standard deviation (SD) of the Ct value <0.20 were accepted. In addition, for each sample analyzed, a retrotranscriptase minus control was run in the same plate to assure lack of genomic DNA contamination (FIG. 1).
In order to provide an easily interpretable evaluation of the effect of BRCA1 mRNA expression, gene expression values were divided into quartiles. Interpatient variation coefficients were calculated to assess similarities between quartiles. Hazard ratios were calculated with the univariate Cox model, and comparison between Kaplan-Meier survival curves was performed with the log-rank test. […]

[2] = tested on: Mouse models carrying conditional disruption of BRCA1; settings: cited from earlier work
breast cancer cell line = settings: BRCA1 mRNA determined by RT-QPCR; cited from earlier work
[3] = tested on: SKOV-3 human ovarian cancer cell line; settings: cited from earlier work
[4] = tested on: HCC1937 breast cancer cell line; settings: HCC1937, BRCA1 reconstituted vs BRCA1-negative; cited from earlier work
[5] = bottom quartile of BRCA1 levels
[6] = bottom quartile of BRCA1 levels, listed as Gemcitabine/Cisplatin
[7] = middle quartiles of BRCA1 levels
[8] = middle quartiles of BRCA1 levels, listed as Gemcitabine/Cisplatin
[9] = top quartile of BRCA1 levels, listed as Gemcitabine/Cisplatin

gemcitabine/cisplatin
Patients who attained a complete pathologic response (T0N0) ([1]; all in the bottom quartile of BRCA1 levels): Five
Median survival ([1]; all patients): 37.8 months
Risk of death, hazard ratio ([1]; bottom quartile compared to top quartile, unstratified): 0.187
Radiographic Response: Partial Response [1, 5]: 66.7%
Radiographic Response: Stable Disease [1, 5]: (33.3) %
Surgical Results: Complete Resection [1, 5]: 93.3%
Radiographic Response: Progressive Disease ([1]; bottom quartile of BRCA1 levels, number of patients): 0 N
Radiographic Response: Partial Response [1, 6]: (66.7) %
Surgical Results: Complete Resection [1, 6]: (93.3) %
Median survival ([1]; bottom quartile of BRCA1 mRNA levels (0.28-0.61), 15 patients): not reached
Radiographic Response: Partial Response [1, 7]: 57.1%
Radiographic Response: Progressive Disease [1, 7]: (7.1) %
Radiographic Response: Stable Disease [1, 7]: (35.7) %
Surgical Results: Complete Resection [1, 7]: 78.6%
Radiographic Response: Partial Response [1, 8]: (57.1) %
Surgical Results: Complete Resection [1, 8]: (78.6) %
Median survival ([1]; patients who underwent lobectomy): 51.9 months
Median survival ([1]; patients who underwent pneumonectomy): 25.8 months
Risk of death, hazard ratio ([1]; stratified by clinical stage, bottom quartile compared to top quartile): 0.220
Risk of death, hazard ratio ([1]; stratified by clinical stage, two middle quartiles compared to top quartile): 0.430
Risk of death, hazard ratio ([1]; stratified by pathologic stage, bottom quartile compared to top quartile): 0.206
Risk of death, hazard ratio ([1]; stratified by pathologic stage, two middle quartiles compared to top quartile): 0.294
Radiographic Response: Partial Response ([1]; top quartile of BRCA1 levels): 58.3%
Radiographic Response: Progressive Disease ([1]; top quartile of BRCA1 levels): (8.3) %
Radiographic Response: Stable Disease ([1]; top quartile of BRCA1 levels): (33.3) %
Surgical Results: Complete Resection ([1]; top quartile of BRCA1 levels): 83.3%
Radiographic Response: Partial Response [1, 9]: (58.3) %
Surgical Results: Complete Resection [1, 9]: (83.3) %
Median survival ([1]; top quartile of BRCA1 mRNA levels (2.45-10.43), 12 patients): 12.7 months
Risk of death, hazard ratio ([1]; two middle quartiles compared to top quartile, unstratified): 0.382
Median survival ([1]; two middle quartiles of BRCA1 mRNA levels (0.65-2.37), 28 patients): 37.8 months

CC/C(=C(\c1ccccc1)c1ccc(OCCN(C)C)cc1)c1ccccc1 [tamoxifen]
Sensitivity of BRCA1-disrupted mouse models [2]: resistant

COc1cc([C@@H]2c3cc4c(cc3[C@@H](O[C@@H]3O[C@@H]5CO[C@@H](C)O[C@H]5[C@H](O)[C@H]3O)[C@H]3COC(=O)[C@H]23)OCO4)cc(OC)c1O [etoposide]
Change of drug sensitivity on decreased BRCA1 mRNA expression (breast cancer cell line): greater sensitivity

CC(=O)O[C@H]1C(=O)[C@@]2(C)[C@H]([C@H](OC(=O)c3ccccc3)[C@]3(O)C[C@H](OC(=O)[C@H](O)[C@@H](NC(=O)c4ccccc4)c4ccccc4)C(C)=C1C3(C)C)[C@]1(OC(C)=O)CO[C@@H]1C[C@@H]2O [paclitaxel]
Change of drug sensitivity on decreased BRCA1 mRNA expression (breast cancer cell line): greater resistance

N.N.[Cl][Pt][Cl] [cisplatin, cis-diaminodichloroplatinum]
Change of drug resistance on upregulation of BRCA1 expression [3]: increased cisplatin resistance
Increase in resistance on reconstitution of wild-type BRCA1 [4]: 20 fold
Change of drug sensitivity on decreased BRCA1 mRNA expression (breast cancer cell line): greater sensitivity

COc1cccc2c1C(=O)c1c(O)c3c(c(O)c1C2=O)C[C@@](O)(C(=O)CO)C[C@@H]3O[C@H]1C[C@H](N)[C@H](O)[C@H](C)O1 [doxorubicin]
Sensitivity of BRCA1-disrupted mouse models [2]: highly sensitive

CC[C@]1(O)C[C@H]2CN(CCc3c([nH]c4ccccc34)[C@@](C(=O)OC)(c3cc4c(cc3OC)N(C=O)[C@H]3[C@@](O)(C(=O)OC)[C@H](OC(C)=O)[C@]5(CC)C=CCN6CC[C@]43[C@@H]65)C2)C1 [vincristine]
Change of drug sensitivity on decreased BRCA1 mRNA expression (breast cancer cell line): greater resistance
